From patent US5874283A, “Mammalian flap-specific endonuclease” (Harrington; John Joseph, priority 1995, dated 1999)
Like-named read-outs stand apart in the source and are kept apart here.

Legend:
[1] = biological target: T1, FEN-1 (flap endonuclease-1) purified from the nuclear fraction of mouse pre-B cell line 1-8 (Mus musculus, UniProt P39749); test: biochemical; details: read-out: % Activity (endonuclease activity, FEN-1 activity versus divalent metal ion)
Description: (§1) FEN-1 was purified from the nuclear fraction of a mouse pre-B cell line. The chromatographic behavior of FEN-1 was monitored using Flap Substrate 1 in the standard FEN-1 endonuclease assay.

[2] = biological target: T1, FEN-1 (flap endonuclease-1) purified from the nuclear fraction of mouse pre-B cell line 1-8; details: replacement of MgCl2 with 5 mM EDTA
Description: as §1

[3] = biological target: T1, FEN-1 (flap endonuclease-1) purified from the nuclear fraction of mouse pre-B cell line 1-8; test: biochemical; details: 0.5 h, read-out: % Activity (exonuclease activity, FEN-1 activity versus divalent metal ion)
Protocol: All purification steps were carried out at 0°-4° C. Six liters of the murine pre-B cell line, 1-8 (Alt et al., 1984), were grown to 2×10^6 cells/ml in RPMI 1640, 10% FBS, 50 μM β-mercaptoethanol (βME), 100 μg/ml penicillin-streptomycin in spinner flasks. Eighteen liters of RPMI 1640 and 100 μg/ml penicillin-streptomycin were then added, and the cells were allowed to grow for an additional 24 h. The cells were harvested at a cell density of 1-1.5×10^6 cells/ml and spun at 1000 g in a Beckman JA-10 rotor for 5 min. The cell pellet was then washed with 500 ml of ice-cold PBS (5 mM NaPi pH 7.4, 137 mM NaCl, 3 mM KCl) supplemented with 1 g/l MgCl2 and pelleted as above. Nuclei were isolated by allowing the cell pellet to swell in 100 ml Buffer A (10 mM HEPES-KOH pH 7.8, 1.5 mM MgCl2, 10 mM KCl, 0.5 mM DTT) for 10 min on ice. The swollen cells were spun for 5 min at 2500 g in a Beckman J6B centrifuge, resuspended in 40 ml Buffer A and homogenized with 20 strokes of the B-pestle in a Dounce homogenizer. The nuclei were collected by centrifugation at 2500 g in a Beckman J6B for 5 min and lysed by adding 40 ml of Buffer B (20 mM EPES-KOH pH 7.8, 0.42M NaCl, 25% glycerol, 1.5 mM MgCl2, 0.2 mM EDTA, 0.5 mM DTT, 0.5 mM PMSF). Nuclear lysis was completed with 20 strokes of the B-pestle in a Dounce homogenizer. […]

T1 sequence (P39749 whole entry): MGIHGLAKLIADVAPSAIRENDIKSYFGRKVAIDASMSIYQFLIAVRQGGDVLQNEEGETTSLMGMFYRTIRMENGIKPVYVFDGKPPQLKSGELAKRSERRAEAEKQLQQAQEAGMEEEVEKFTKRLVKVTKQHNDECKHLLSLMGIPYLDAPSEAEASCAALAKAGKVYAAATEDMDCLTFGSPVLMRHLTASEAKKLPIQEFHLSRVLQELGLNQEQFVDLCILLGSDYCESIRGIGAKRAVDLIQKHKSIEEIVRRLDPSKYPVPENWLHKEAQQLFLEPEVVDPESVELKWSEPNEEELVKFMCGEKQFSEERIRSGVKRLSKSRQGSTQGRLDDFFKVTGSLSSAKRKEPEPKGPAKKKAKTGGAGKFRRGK

With `O=C(O)CN(CCN(CC(=O)O)CC(=O)O)CC(=O)O` [EDTA] the activity at 5000 µM [1] was less than 1%, the “Inhibition of the flap cleavage reaction” value [2] was “completely inhibited” and the activity at 5000 µM [3] was less than 0.5%.
